Results as given in ChEMBL document CHEMBL2203030, “Synthesis, characterization, antidepressant and antioxidant activity of novel piperamides bearing piperidine and piperazine analogues” (Bioorg Med Chem Lett, 2012).
≈ marks a conversion by molar mass, not a printed value.

Key:
Type in all cases: functional
Aspergillus flavus [1] = assay: Antimicrobial activity against Aspergillus flavus NCIM 524 at 10 ug/disc incubated for 48 hrs by agar disc diffusion method; conditions: NCIM 524, 48 h
Candida albicans [2] = assay: Antimicrobial activity against Candida albicans NCIM 3471 at 10 ug/disc incubated for 48 hrs by agar disc diffusion method; conditions: NCIM 3471, 48 h, read-out: IZ
Candida albicans [3] = assay: Antimicrobial activity against Candida albicans NCIM 3471 by broth dilution method
Aspergillus flavus [4] = assay: Antimicrobial activity against Aspergillus flavus NCIM 524 at 100 ug/mL incubated for 48 hrs by agar disc diffusion method; conditions: NCIM 524, 48 h, read-out: IZ

OC(Cn1cncn1)(Cn1cncn1)c1ccc(F)cc1F [FLUCONAZOLE]
MIC (Aspergillus flavus [1]): 5 µg/mL (≈ 16.3 µM)
zone of inhibition at 10 µg/disc (Candida albicans [2]): 16 mm
MIC (Candida albicans [3]): 5 µg/mL (≈ 16.3 µM)
zone of inhibition at 100 µg/mL (Aspergillus flavus [4]): 19 mm
